Legend:
[1] = test system: BT474 cells; test: Measurement of lipid peroxidation (BODIPY C11, flow cytometry); format: cell-based, human; conditions: with RSL3
Protocol: (§1) FIG. 2 A-E. mTORC1, instead of mTORC2, suppresses ferroptosis. (A) MDA-MB-453 and BT474 were treated with CCI-779 (0.5 μM), RSL3 (1 μM for MDA-MB-453 cells and 0.5 μM for BT474 cells), and Fer-1 (1 μM) as indicated. (B) Cells were seeded in 6-well plate, 4×10^5 cells per well and incubated overnight. MDA-MB-453 and BT474 cells were treated as indicated. CCI-779, 0.5 μM; RSL3, 1 μM for MDA-MB-453 cells and 0.5 μM for BT474 cells; Fer-1, 1 μM. Cells were stained with 5 μM C1I-BODIPY followed by flow cytometry after 8 h-treatment. (C) 3D spheroids were treated as indicated. CCI-779, 0.5 μM; RSL3, 0.5 μM; Fer-1, 1 μM. Top panel, dead cells were stained by SYTOX Green (scale bar, 100 μm). Bottom panel, cell viability was assayed by measuring cellular ATP levels. (D) Cells expressing shRNAs targeting RPTOR or RICTOR were treated as indicated. CCI-779, 0.5 μM; RSL3, 0.5 μM; Fer-1, 1 μM. (E) Lipid peroxidation of samples as in panel D were measured.
(§2) FIG. 7 A-J. PI3K-AKT-mTOR signaling regulates ferroptosis sensitivity. (A) Cells were treated as indicated. GDC-0941, 2 μM; MK-2206, 2 μM; RSL3, 1 μM; Fer-1, 1 μM. Lipid peroxidation was measured. (B) Cells were treated with indicated conditions. Torin, 1 μM; RSL3, 1 μM for MDA-MB-453 cells and 0.5 μM for BT474 cells; Fer-1, 1 μM. Cell death was measured. (C) Cells were treated with indicated conditions. RSL3, 10 μM for MCF cells and PC-3 cells, 5 μM for T47D cells, 1 μM for HepG2 cells; Torin, 1 μM; CCI-779, 0.5 μM. (D) Cells were treated as indicated. CCI-779, 0.5 μM; Torin, 1 μM; Fer-1, 1 μM. Cell death was staining by propidium iodide (PI) (red) or Sytox Green (green) (scale bar, 100 μm). (E-F) 3D spheroids for MDA-MB-453 cells and MCF7 cells were treated as indicated. CCI-779, 0.5 μM; RSL3, 1 μM for MDA-MB-453 cells and 5 μM for MCF7 cells; Fer-1, 1 μM. Top panels, cell death staining (scale bar, 100 m). Bottom panels, cell viability. (G) MDA-MB-453 cells were treated as indicated for 24 h. RSL3, 1 μM; CCI-779, 0.5 μM; GDC-0941, 2 μM; MK-2206, 2 μM; Dabrafenib, 2 μM; SCH772984, 2 μM; Fer-1, 1 μM. (H) Western blot was performed to detect RPTOR and RICTOR knockdown efficiency. (I) HT1080 cells and MDA-MB-231 cells (both with wild-type PI3K-AKT-mTOR pathway) were treated as indicated. RSL3, 0.1 μM for HT1080 and 0.25 μM for MDA-MB-231; Torin, 1 μM; CCI-779, 0.5 μM; Fer-1, 1 μM. Cell death was measured. (J) Two lines of PI3K-AKT-mTOR pathway wild-type cells (HT1080 and MDA-MB-231) and two lines of cells harboring activating mutation of the pathway (BT474 and MDA-MB-453) were treated as indicated. RSL3, 0.25 μM; Fer-1, 1 μM. Western blot was performed to detect the level of pT389 S6K.
(§3) FIG. 11 A-H. SCD1 protects cells against ferroptosis. (A) Cells were pretreated cells with 5 μM CAY10566 overnight. Cells were treated as indicated. RSL3, 1 μM for MDA-MB-453 and 0.5 μM for BT474; Fer-1, 1 μM; CAY10566, 5 μM; Fer-1, 1 μM. (B) Western blot, measuring the SCD knockout efficiency in BT474, MDA-MB-453 and MCF7 cells. (C) MCF cells (sgCtrl, sgSCD #1 and sgSCD #2) were treated as indicated. RSL3, 5 μM; Fer-1, 1 μM. (D) Cells were treated as indicated. RSL3, 1 μM for MDA-MB-453 cells and 0.5 μM for BT474 cells; Fer-1, 1 μM. (E) Cells were treated as indicated. RSL3, 1 μM for MDA-MB-453 cells and 0.5 μM for BT474 cells; Fer-1, 1 μM; CCI-779, 0.5 μM; GDC-0941, 2 μM; MK-2206, 2 μM. (F) SCD1 was overexpressed in BT474 cells. Cells were treated as indicated. RSL3, 0.5 μM; CCI-779, 0.5 μM. Lipid peroxidation was measured. (G) SCD1 was overexpressed in A549 cells and determined by western blot. Cells were treated as indicated. RSL3, 0.25 μM; CCI-779, 0.5 μM. Lipid peroxidation and cell death were measured 6 h and 24 h after treatment, respectively. (H) SCD1 was overexpressed in BT474 cells harboring SREBF1 knockout. SCD1 and SREBP1 level were determined by western blot. Cells were treated as indicated. RSL3, 0.5 μM; CCI-779, 0.5 μM; Fer-1, 1 μM.
(§4) Lipid peroxidation was analyzed by flow cytometry. […]

[2] = test system: MDA-MB-453 cells; test: as above; format: cell-based, human; conditions: with RSL3
Protocol: as §1, §2, §3, §4

SMILES | sensitization to lipid peroxidation [1] | sensitization to lipid peroxidation [2]
Cc1nnc(-c2ccc(N3CCC(Oc4cc(F)ccc4Cl)CC3)nn2)o1 [CAY10566] | sensitized the effect of RSL3 | sensitized the effect of RSL3
CO[C@H]1C[C@@H]2CC[C@@H](C)[C@@](O)(O2)C(=O)C(=O)N2CCCC[C@H]2C(=O)O[C@H]([C@H](C)C[C@@H]2CC[C@@H](OC(=O)C(C)(CO)CO)[C@H](OC)C2)CC(=O)[C@H](C)/C=C(\C)[C@@H](O)[C@@H](OC)C(=O)[C@H](C)C[C@H](C)/C=C/C=C/C=C/1C [CCI-779, Temsirolimus] | sensitize | sensitize
CCCc1cc(-c2nc(-c3ccc(C)cc3)cs2)ccn1 [Fatostatin A] | sensitized | sensitized
CS(=O)(=O)N1CCN(Cc2cc3nc(-c4cccc5[nH]ncc45)nc(N4CCOCC4)c3s2)CC1 [GDC-0941] | sensitized | sensitized
NC1(c2ccc(-c3nc4ccn5c(=O)[nH]nc5c4cc3-c3ccccc3)cc2)CCC1 [MK-2206] | sensitized | sensitized
